Here are results for 1 compound from patent EP3949965A1 (Consejo Superior de Investigaciones Cientificas, priority 2020, dated 2022).

One series deals with Vero-E6 cells. The settings on record: African green monkey.
A short description of series [1]: in vitro. The settings on record: human.
A short description of series [2]: in vitro. The settings on record: African green monkey.

As for `O=c1[nH]c2ccccc2n1CCCN1CCC(n2c(=O)[nH]c3cc(Cl)ccc32)CC1` [Domperidone, domperidone], the “HIGHEST NONTOXIC CONCENTRATION (MTT)” value with Vero-E6 cells is 12.5. The same compound returned a CC50 at 72 h in the series “in vitro [1]” of 4 µM. Further, in the series “in vitro [2]”, the CC50 amounted to 25 µM.
